From patent publication US10894052B2, “Heterocyclic inhibitors of ATR kinase” (Board of Regents, The University of Texas System, priority 2018, dated 2021)
Read-outs that look alike come from different tables or passages of the source.

Assays:
[1] = biological target: ATR/ATRIP complex (Homo sapiens (Human), UniProt Q13535); assay: ATR/ATRIP enzymatic assay (Caliper-based); format: biochemical; settings: ATR/ATRIP enzyme; FAM-labeled RAD17 peptide, ATP
Method: (§1) The ability of the compounds of Formula I to inhibit the catalytic activity of the ATR/ATRIP complex was measured in a Caliper-based assay, and in HT-29 cells in an Alphascreen assay, following the ATR-mediated phosphorylation of CHK1, described below.
Human full-length FLAG-TEV-ATR and His6-ATRIP were co-expressed in HEK293 cells. […] The sample was loaded into a column, and then washed with buffer A three times. Protein was subsequently eluted with 2 ml of buffer B (buffer A+200 μg/ml 3×FLAG peptide).
The ability of new chemical matter to inhibit the ATR catalytic activity in this ATR/ATRIP complex was assessed using a Caliper-based assay. A 2× enzyme solution (i.e., 4 nM enzyme) was prepared using 1× Kinase Reaction Buffer (25 mM HEPES pH 8, 0.0055% Brij-35, 10 mM MnCl2, and 1 mM DTT). […] 10 μL of the 2× enzyme solution was transferred to an assay plate containing 60 nL of test compound (from a 3× serial dilution) in 100% DMSO. Following a 30-min incubation at 28° C., 10 μL of the 2× peptide solution was then transferred to the same assay plate. The reaction incubated at 28° C. for 6 h. After adding 30 μL stop buffer (100 mM HEPES pH 7.5, 0.015% Brij-35, 0.2% Coating-3 Reagent (PerkinElmer, catalog #PN760050), and 50 mM EDTA), data were collected on a Caliper instrument. Conversion values were converted to inhibition values via the following equation: % inhibition=(max−conversion)/(max−min)*100, wherein “max” corresponds to the DMSO control, and “min” corresponds to the low control. IC50 values were calculated using the following equation in XLFit: Y=Bottom+(Top−Bottom)/1+(IC50/X)^HillSlope).

[2] = test system: ATR-driven phosphorylation of Chk1 kinase at Serine 345 in HT-29 cells; assay: pCHK1 cellular assay (CHK1 p-Ser345 AlphaScreen SureFire); format: cell-based; settings: HT-29 colorectal adenocarcinoma cells, 4-nitroquinoline N-oxide 12 μM, read-out: Cell IC50 (pCHK1)
Method: as §1
Cellular IC50 for the inhibitors of ATR described herein were measured in HT-29 colorectal adenocarcinoma cells.
The microplate was incubated overnight (approximately 20 hours) at 37° C. with 5% CO2 and ambient O2. Stock solutions of the test compounds were prepared in 100% DMSO (Sigma, Catalog #D2650) and serially diluted 1:3 using 100% DMSO. Compounds were additionally diluted 1:33 in culture medium, and 10 μL/well were transferred to the tissue culture plate. Following the compound addition, the microplate was incubated at 37° C. for 90 minutes. […] The cells were then washed with PBS and lysed using 10 μL/well […]® Kit lysis buffer diluted to 1× in water (PerkinElmer Catalog #TGRCHK1S50K), with mixing on an orbital shaker at 500 rpm for 20 min at room temperature. Lysates were frozen at −20 OC overnight.
The pCHK1 ALPHASCREEN® signal was measured using an ENVISION® plate reader (PerkinElmer). IC50 values were calculated using a four-parameter logistic curve fit using Genedata Screener software. Percent of control for each compound concentration was calculated by the following formula: 100*(Compound−Min)/(Max−Min), where “Max” is the high control, DMSO, and “Min” is the low control, 5 μM ATR inhibitor.

ATR/ATRIP complex, sequence (Q13535 whole entry): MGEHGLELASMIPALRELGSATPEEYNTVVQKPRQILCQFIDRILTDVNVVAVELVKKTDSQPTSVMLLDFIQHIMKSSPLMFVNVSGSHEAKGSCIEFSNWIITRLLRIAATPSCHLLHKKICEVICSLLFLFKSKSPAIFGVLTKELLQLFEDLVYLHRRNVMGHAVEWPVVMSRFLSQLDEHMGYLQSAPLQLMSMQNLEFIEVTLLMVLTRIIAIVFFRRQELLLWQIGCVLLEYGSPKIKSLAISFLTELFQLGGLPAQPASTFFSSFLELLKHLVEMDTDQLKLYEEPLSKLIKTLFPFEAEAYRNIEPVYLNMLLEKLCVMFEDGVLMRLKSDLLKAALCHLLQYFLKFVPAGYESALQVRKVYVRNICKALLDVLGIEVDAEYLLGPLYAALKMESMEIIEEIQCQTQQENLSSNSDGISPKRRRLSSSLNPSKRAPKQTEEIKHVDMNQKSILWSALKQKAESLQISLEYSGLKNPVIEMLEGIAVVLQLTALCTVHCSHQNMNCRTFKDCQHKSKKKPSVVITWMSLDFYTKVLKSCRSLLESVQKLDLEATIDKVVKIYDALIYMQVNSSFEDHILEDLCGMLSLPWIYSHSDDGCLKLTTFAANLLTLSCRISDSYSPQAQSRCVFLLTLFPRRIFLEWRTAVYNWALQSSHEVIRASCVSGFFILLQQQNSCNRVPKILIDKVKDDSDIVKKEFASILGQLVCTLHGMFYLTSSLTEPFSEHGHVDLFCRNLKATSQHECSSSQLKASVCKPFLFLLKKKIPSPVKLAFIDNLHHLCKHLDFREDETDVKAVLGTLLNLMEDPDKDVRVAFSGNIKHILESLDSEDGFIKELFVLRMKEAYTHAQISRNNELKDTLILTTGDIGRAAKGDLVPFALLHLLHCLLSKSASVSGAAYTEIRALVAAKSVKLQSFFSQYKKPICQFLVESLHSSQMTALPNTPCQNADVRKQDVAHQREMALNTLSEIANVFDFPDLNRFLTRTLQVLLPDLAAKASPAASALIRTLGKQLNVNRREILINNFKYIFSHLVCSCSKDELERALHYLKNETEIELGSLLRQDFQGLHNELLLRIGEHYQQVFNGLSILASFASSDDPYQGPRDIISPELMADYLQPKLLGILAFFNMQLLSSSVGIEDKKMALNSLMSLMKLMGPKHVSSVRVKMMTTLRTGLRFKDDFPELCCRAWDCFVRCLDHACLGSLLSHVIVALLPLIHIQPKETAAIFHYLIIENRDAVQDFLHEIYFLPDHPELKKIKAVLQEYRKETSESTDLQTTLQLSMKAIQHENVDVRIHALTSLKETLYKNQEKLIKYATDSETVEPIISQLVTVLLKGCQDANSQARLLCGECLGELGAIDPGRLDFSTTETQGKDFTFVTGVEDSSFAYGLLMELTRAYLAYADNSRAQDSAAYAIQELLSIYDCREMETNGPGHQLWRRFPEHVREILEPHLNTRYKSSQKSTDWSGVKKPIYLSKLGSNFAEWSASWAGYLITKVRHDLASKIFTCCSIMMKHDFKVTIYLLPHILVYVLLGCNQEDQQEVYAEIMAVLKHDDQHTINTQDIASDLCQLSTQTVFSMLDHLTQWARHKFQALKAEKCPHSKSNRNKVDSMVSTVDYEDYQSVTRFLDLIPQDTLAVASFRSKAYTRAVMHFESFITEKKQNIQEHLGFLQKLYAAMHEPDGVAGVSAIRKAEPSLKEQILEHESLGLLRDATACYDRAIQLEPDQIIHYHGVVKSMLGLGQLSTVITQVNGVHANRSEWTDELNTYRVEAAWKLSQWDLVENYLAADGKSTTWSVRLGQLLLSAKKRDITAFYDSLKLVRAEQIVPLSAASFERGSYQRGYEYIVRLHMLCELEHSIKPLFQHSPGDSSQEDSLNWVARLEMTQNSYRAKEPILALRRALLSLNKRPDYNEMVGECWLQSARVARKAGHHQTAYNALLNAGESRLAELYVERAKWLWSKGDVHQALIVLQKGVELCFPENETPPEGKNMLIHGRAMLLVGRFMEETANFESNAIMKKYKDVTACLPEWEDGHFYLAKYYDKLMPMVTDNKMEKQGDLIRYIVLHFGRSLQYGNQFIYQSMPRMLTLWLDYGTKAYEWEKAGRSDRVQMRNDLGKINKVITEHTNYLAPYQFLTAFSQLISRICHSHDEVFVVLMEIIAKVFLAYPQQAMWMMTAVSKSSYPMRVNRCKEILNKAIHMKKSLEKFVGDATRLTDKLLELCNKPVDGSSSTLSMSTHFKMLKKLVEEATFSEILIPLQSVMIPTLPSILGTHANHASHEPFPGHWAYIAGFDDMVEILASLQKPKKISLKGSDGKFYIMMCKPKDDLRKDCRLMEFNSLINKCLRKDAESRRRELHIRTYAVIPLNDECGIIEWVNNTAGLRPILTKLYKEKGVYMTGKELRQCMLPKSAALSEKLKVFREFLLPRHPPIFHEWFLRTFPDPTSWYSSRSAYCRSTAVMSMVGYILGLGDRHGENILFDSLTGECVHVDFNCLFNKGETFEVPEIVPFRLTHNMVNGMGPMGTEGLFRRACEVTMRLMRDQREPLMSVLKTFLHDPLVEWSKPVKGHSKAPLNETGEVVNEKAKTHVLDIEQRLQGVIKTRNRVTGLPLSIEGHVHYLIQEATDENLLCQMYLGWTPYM
ATR/ATRIP complex, sequence (Q8WXE1 whole entry partner): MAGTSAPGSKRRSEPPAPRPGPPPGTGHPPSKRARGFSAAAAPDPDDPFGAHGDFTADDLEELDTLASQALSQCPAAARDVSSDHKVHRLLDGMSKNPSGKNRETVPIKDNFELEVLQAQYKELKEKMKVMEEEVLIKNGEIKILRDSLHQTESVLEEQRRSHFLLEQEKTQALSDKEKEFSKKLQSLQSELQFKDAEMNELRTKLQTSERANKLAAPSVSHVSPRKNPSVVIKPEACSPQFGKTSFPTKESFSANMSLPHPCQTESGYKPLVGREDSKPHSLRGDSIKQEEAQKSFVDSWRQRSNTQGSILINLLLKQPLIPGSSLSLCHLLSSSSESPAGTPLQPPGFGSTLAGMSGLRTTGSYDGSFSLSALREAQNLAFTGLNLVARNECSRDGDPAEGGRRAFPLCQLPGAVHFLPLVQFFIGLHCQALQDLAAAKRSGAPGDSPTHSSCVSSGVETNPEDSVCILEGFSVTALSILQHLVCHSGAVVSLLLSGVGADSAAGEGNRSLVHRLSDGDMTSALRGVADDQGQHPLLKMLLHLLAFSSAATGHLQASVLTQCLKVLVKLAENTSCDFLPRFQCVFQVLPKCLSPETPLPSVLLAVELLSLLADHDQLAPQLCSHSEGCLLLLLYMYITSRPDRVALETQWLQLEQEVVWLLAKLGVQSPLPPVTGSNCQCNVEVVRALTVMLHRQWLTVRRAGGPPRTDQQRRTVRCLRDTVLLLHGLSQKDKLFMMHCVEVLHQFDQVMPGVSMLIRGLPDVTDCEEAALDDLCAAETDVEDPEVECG

| IC50 [1] [µM] | IC50 ([2]; Homo sapiens) [µM] | IC50 [2] [µM] | SMILES |
| --- | --- | --- | --- |
| 0.118 | 0.804 |  | C[C@@H]1COCCN1c1cc(N=S(C)(C)=O)nc(-c2ccnc3[nH]cnc23)c1 [Example 2, (R)-((6-(3H-Imidazo[4,5-b]pyridin-7-yl)-4-(3-methylmorpholino)pyridin-2-yl)imino)dimethyl-λ^6-sulfanone] |
| 0.011 | 0.099 |  | Cc1cc2c(-c3cc(N4CCOC[C@H]4C)cc(N=S(C)(C)=O)n3)ccnc2[nH]1 [Example 12, (R)-dimethyl((6-(2-methyl-1H-pyrrolo[2,3-b]pyridin-4-yl)-4-(3-methylmorpholino)pyridin-2-yl)imino)-λ^6-sulfanone] |
| 0.009 | 0.232 |  | C[C@@H]1COCCN1c1cc(N=S(C)(C)=O)nc(-c2cncc3[nH]ccc23)c1 [Example 13, (R)-dimethyl((4-(3-methylmorpholino)-6-(1H-pyrrolo[2,3-c]pyridin-4-yl)pyridin-2-yl)imino)-λ^6-sulfanone] |
| 0.048 | 3.65 |  | COc1cc(-c2cc(N3CCOC[C@H]3C)cc(N=S(C)(C)=O)n2)c2cc[nH]c2n1 [Example 14, (R)-((6-(6-methoxy-1H-pyrrolo[2,3-b]pyridin-4-yl)-4-(3-methylmorpholino)pyridin-2-yl)imino)dimethyl-λ^6-sulfanone] |
| 0.372 | 0.875 |  | C[C@@H]1COCCN1c1cc(N=S(C)(C)=O)nc(-c2ccnc(N)c2)c1 [Example 15, (R)-((2′-amino-4-(3-methylmorpholino)-[2,4′-bipyridin]-6-yl)imino)dimethyl-λ^6-sulfanone] |
| 0.012 | 0.364 |  | C[C@@H]1COCCN1c1cc(N=S(C)(C)=O)nc(-c2cccc3[nH]ccc23)c1 [Example 20, (R)-((6-(1H-indol-4-yl)-4-(3-methylmorpholino)pyridin-2-yl)imino)dimethyl-λ^6-sulfanone] |
| 0.008 | 0.467 |  | C[C@@H]1COCCN1c1cc(N=S(C)(C)=O)nc(-c2cccc3[nH]cnc23)c1 [Example 23, (R)-((6-(1H-benzo[d]imidazol-4-yl)-4-(3-methylmorpholino)pyridin-2-yl)imino)dimethyl-λ^6-sulfanone] |
|  | 9.62 |  | C[C@@H]1COCCN1c1cc(N=S(C)(C)=O)nc(-c2cncn2C)c1 [Example 35, (R)-dimethyl((6-(1-methyl-1H-imidazol-5-yl)-4-(3-methylmorpholino)pyridin-2-yl)imino)-λ^6-sulfanone] |
|  | 5.55 |  | C[C@@H]1COCCN1c1cc(N=S(C)(C)=O)nc(-c2cn[nH]c2)c1 [Example 36, (R)-dimethyl((4-(3-methylmorpholino)-6-(1H-pyrazol-4-yl)pyridin-2-yl)imino)-λ^6-sulfanone] |
|  | 8.21 |  | C[C@@H]1COCCN1c1cc(N=S(C)(C)=O)nc(-c2cc[nH]n2)c1 [Example 37, (R)-dimethyl((4-(3-methylmorpholino)-6-(1H-pyrazol-3-yl)pyridin-2-yl)imino)-λ^6-sulfanone] |
|  | 10 |  | C[C@@H]1COCCN1c1cc(N=S(C)(C)=O)nc(-c2ccn(C)n2)c1 [Example 38, (R)-dimethyl((6-(1-methyl-1H-pyrazol-3-yl)-4-(3-methylmorpholino)pyridin-2-yl)imino)-λ^6-sulfanone] |

More lines, now with the values behind:

| SMILES | IC50 [1] [µM] | IC50 ([2]; Homo sapiens) [µM] | IC50 [2] [µM] |
| --- | --- | --- | --- |
| Cc1nc2cccnc2n1-c1cc(N2CCOC[C@H]2C)cc(N=S(C)(C)=O)n1 [Example 4, (R)-Dimethyl((6-(2-methyl-3H-imidazo[4,5-b]pyridin-3-yl)-4-(3-methylmorpholino)pyridin-2-yl)imino)-λ^6-sulfanone] | 0.986 | 10 |  |
| C[C@@H]1COCCN1c1cc(N=S(C)(C)=O)nc(-n2cnc3cccnc32)c1 [Example 5, (R)-((6-(3H-Imidazo[4,5-b]pyridin-3-yl)-4-(3-methylmorpholino)pyridin-2-yl)imino)dimethyl-λ^6-sulfanone] | 0.044 | 10 |  |
| C[C@@H]1COCCN1c1cc(N=S(C)(C)=O)nc(-n2c(C(F)F)nc3ccccc32)c1 [Example 6, (R)-((6-(2-(Difluoromethyl)-1H-benzo[d]imidazol-1-yl)-4-(3-methylmorpholino)pyridin-2-yl)imino)dimethyl-λ^6-sulfanone] | 0.005 | 2.32 |  |
| C[C@@H]1COCCN1c1cc(N=S(C)(C)=O)nc(-n2c(CO)nc3ccccc32)c1 [Example 7, (R)-((6-(2-(Hydroxymethyl)-1H-benzo[d]imidazol-1-yl)-4-(3-methylmorpholino)pyridin-2-yl)imino)dimethyl-λ^6-sulfanone] | 0.016 | 8.62 |  |
| C[C@@H]1COCCN1c1cc(N=S(C)(C)=O)nc(-n2c(CF)nc3ccccc32)c1 [Example 8, (R)-((6-(2-(Fluoromethyl)-1H-benzo[d]imidazol-1-yl)-4-(3-methylmorpholino)pyridin-2-yl)imino)dimethyl-λ^6-sulfanone] | 0.005 | 3.33 |  |
| C[C@@H]1COCCN1c1cc(N=S(C)(C)=O)nc(-n2c(N)nc3ccccc32)c1 [Example 9, (R)-((6-(2-Amino-1H-benzo[d]imidazol-1-yl)-4-(3-methylmorpholino)pyridin-2-yl)imino)dimethyl-λ^6-sulfanone] | 0.001 | 0.159 |  |
| CNc1nc2ccccc2n1-c1cc(N2CCOC[C@H]2C)cc(N=S(C)(C)=O)n1 [Example 10, (R)-Dimethyl((6-(2-(methylamino)-1H-benzo[d]imidazol-1-yl)-4-(3-methylmorpholino)pyridin-2-yl)imino)-λ^6-sulfanone] | 0.001 | 0.035 |  |
| C[C@@H]1COCCN1c1cc(N=S(C)(C)=O)nc(-n2cnc3ccccc32)c1 [Example 11, (R)-((6-(1H-benzo[d]imidazol-1-yl)-4-(3-methylmorpholino)pyridin-2-yl)imino)dimethyl-λ^6-sulfanone] | 0.009 | 3.16 |  |
| C[C@@H]1COCCN1c1cc(N=S(C)(=O)C2COC2)nc(-c2ccnc3[nH]ccc23)c1 (stereo partly drawn) [Example 17, methyl((4-((R)-3-methylmorpholino)-6-(1H-pyrrolo[2,3-b]pyridin-4-yl)pyridin-2-yl)imino)(oxetan-3-yl)-λ^6-sulfanone] | 0.012 | 0.638 |  |
| CCOc1cc(-c2cc(N3CCOC[C@H]3C)cc(N=S(C)(C)=O)n2)c2cc[nH]c2n1 [Example 18, (R)-((6-(6-ethoxy-1H-pyrrolo[2,3-b]pyridin-4-yl)-4-(3-methylmorpholino)pyridin-2-yl)imino)dimethyl-λ^6-sulfanone] | 0.029 | 0.47 |  |
| CCOc1cc(-c2cc(N3CCOC[C@@H]3C)cc(N=S(C)(C)=O)n2)c2cc[nH]c2n1 [Example 19] | 0.004 |  | 0.195 |
| C[C@@H]1COCCN1c1cc(N=S(C)(=O)C2CC2)nc(-c2cncc3[nH]ccc23)c1 (stereo partly drawn) [Example 21, cyclopropyl(methyl)((4-((R)-3-methylmorpholino)-6-(1H-pyrrolo[2,3-c]pyridin-4-yl)pyridin-2-yl)imino)-λ^6-sulfanone] | 0.009 | 0.11 |  |
| C[C@@H]1COCCN1c1cc(N=S(C)(=O)C2CC2)nc(-c2cncc3[nH]ccc23)c1 (stereo partly drawn) [Example 22] | 0.006 |  | 0.282 |
| C[C@@H]1COCCN1c1cc(N=S(C)(=O)C2COC2)nc(-c2cncc3[nH]ccc23)c1 (stereo partly drawn) [Example 24, methyl((4-((R)-3-methylmorpholino)-6-(1H-pyrrolo[2,3-c]pyridin-4-yl)pyridin-2-yl)imino)(oxetan-3-yl)-λ^6-sulfanone] | 0.024 | 0.47 |  |
| C[C@@H]1COCCN1c1cc(N=S2(=O)CCC2)nc(-c2ccnc3[nH]ccc23)c1 [Example 25, (R)-1-((4-(3-methylmorpholino)-6-(1H-pyrrolo[2,3-b]pyridin-4-yl)pyridin-2-yl)imino)-1-λ^6-thietane 1-oxide] | 0.009 | 0.767 |  |
